In the NIST ThermoML archive (doi:10.1016/j.fluid.2014.05.006):
± gives the expanded uncertainty stated by the source.

Tests used:
[1] = relative permittivity at zero frequency (dimensionless); details: 298 K; 94.77 kPa; Liquid; Parallel plate capacitor
[2] = relative permittivity at zero frequency (dimensionless); xn = mol fraction of the nth substance listed; details: 298 K, 94.77 kPa, Liquid, Parallel plate capacitor

**Q.** Which “relative permittivity at zero frequency” value [1] does the source give for `Cn1ccnc1` [1-methylimidazole] here?
**A.** 39.78 ± 4.2

**Q.** Which results are given for `Cn1ccnc1` [1-methylimidazole] + O?
**A.** relative permittivity at zero frequency ([2]; x2 = 0): 39.78 ± 4.2; relative permittivity at zero frequency ([2]; x2 = 0.1): 40.98 ± 4.3; relative permittivity at zero frequency ([2]; x2 = 0.2): 42.55 ± 4.5; relative permittivity at zero frequency ([2]; x2 = 0.3): 45.87 ± 4.9; relative permittivity at zero frequency ([2]; x2 = 0.4): 46.02 ± 4.9; relative permittivity at zero frequency ([2]; x2 = 0.5): 48.53 ± 5.2; relative permittivity at zero frequency ([2]; x2 = 0.6): 50.04 ± 5.3; relative permittivity at zero frequency ([2]; x2 = 0.7): 50.99 ± 5.4; relative permittivity at zero frequency ([2]; x2 = 0.8): 52 ± 5.5; relative permittivity at zero frequency ([2]; x2 = 0.9): 53.01 ± 7.5

**Q.** With `O` [water] as the molecule, how does the “relative permittivity at zero frequency” value [1] read?
**A.** 80 ± 8.5

**Q.** With `O` [water] + Cn1ccnc1 as the molecule, how does the “relative permittivity at zero frequency” value ([2]; x1 = 1) read?
**A.** 80 ± 8.5
